What was measured:
[1] = test system: DIGSA; format: in vivo, Digitaria sanguinalis; details: in vivo
Description: (§1) Seeds or nutlets of the desired test plant species were planted in a soil matrix prepared by mixing a loam or sandy loam soil (e.g., 28.6 percent silt, 18.8 percent clay, and 52.6 percent sand, with a pH of about 5.8 and an organic matter content of about 1.8 percent) and calcareous grit in an 80 to 20 ratio. The soil matrix was contained in plastic pots with a volume of 1 quart and a surface area of 83.6 square centimeters (cm^2). […] The plants were grown for 8-22 days in a greenhouse with an approximate 14 hour (h) photoperiod which was maintained at about 29° C. during the day and 26° C. during the night. Nutrients (Peters Excel® 15-5-15 5-Ca 2-Mg and iron chelate) were applied in the irrigation solution as needed and water was added on a regular basis. Supplemental lighting was provided with overhead metal halide 1000-Watt lamps as necessary. The plants were employed for testing when they reached the first through fourth true leaf stage.
(§2) Treatments consisted of the acid or esters of 4-amino-3-chloro-6-(4-chloro-2-fluoro-3-methoxyphenyl)-5-fluoropyridine-2-carboxylic acid (Compound A), each formulated as an SC (suspension concentrate), and various insecticidal components alone and in combination. Forms of compound A were applied on an acid equivalent basis.
(§3) For treatments comprised of formulated compounds, measured amounts of compounds were placed individually in 25 mL glass vials and diluted in a volume of 1.25% volume per volume (v/v) Agri-Dex® crop oil concentrate to obtain 12× stock solutions. […] Application solutions were prepared by adding an appropriate amount of each stock solution (e.g., 1 mL) and diluted to the appropriate final concentrations with the addition of […] of an aqueous mixture of 1.25% (v/v) crop oil concentrate so that the final spray solutions contained 1.25+/−0.05% (v/v) crop oil concentrate.
(§4) As required, additional water and/or 97:3 v/v acetone/DMSO was added to individual application solutions so that the final acetone and DMSO concentrations of the application solutions being compared were 8.1% and 0.25%, respectively.
(§5) All stock solutions and applications solutions were visually inspected for compound compatibility prior to application. Spray solutions were applied to the plant material with an overhead Mandel track sprayer equipped with 8002E nozzles calibrated to deliver 187 L/ha over an application area of 0.503 square meters (m^2) at a spray height of 18 to 20 inches (46 to 50 cm) above average plant canopy height. Control plants were sprayed in the same manner with the solvent blank.
(§6) The treated plants and control plants were placed in a greenhouse as described above and watered by sub-irrigation to prevent wash-off of the test compounds. After approximately 3 weeks, the condition of the test plants as compared to that of the untreated plants was determined visually and scored on a scale of 0 to 100 percent where 0 corresponds to no injury or growth inhibition and 100 corresponds to complete kill.
(§7) Colby's equation was used to determine the herbicidal effects expected from the mixtures (Colby, S. R. Calculation of the synergistic and antagonistic response of herbicide combinations. Weeds 1967, 15, 20-22.).
(§8) The following equation was used to calculate the expected activity of mixtures containing two active ingredients, A and B: Expected=A+B−(A×B/100)

[2] = test system: LEFCH; assay: whole plant or invertebrate; format: in vivo, Leptochloa chinensis; details: Dinebra chinensis, post-emergence, 528 h, read-out: Visual Weed Control (%) - 22 DAA LEFCH Obs
Description: as §1, §2, §3, §4, §5, §6, §7, §8

[3] = test system: LEFFA; assay: Postemergence foliar-applied weed control, direct-seeded rice (greenhouse); format: in vivo, Leptochloa fascicularis; details: 22 DAA
Description: (§9) Seeds or nutlets of the desired test plant species were planted in a soil matrix prepared by mixing a loam or sandy loam soil (e.g., 28.6 percent silt, 18.8 percent clay, and 52.6 percent sand, with a pH of about 5.8 and an organic matter content of about 1.8 percent) and calcareous grit in an 80 to 20 ratio. The soil matrix was contained in plastic pots with a volume of 1 quart and a surface area of 83.6 square centimeters (cm^2). When required to ensure good germination and healthy plants, a fungicide treatment and/or other chemical or physical treatment was applied. The plants were grown for 8-22 days in a greenhouse with an approximate 14 hour (h) photoperiod which was maintained at about 29° C. during the day and 26° C. during the night. Nutrients (Peters Excel® 15-5-15 5-Ca 2-Mg and iron chelate) were applied in the irrigation solution as needed and water was added on a regular basis. Supplemental lighting was provided with overhead metal halide 1000-Watt lamps as necessary. The plants were employed for testing when they reached the first through fourth true leaf stage.
as §2
(§10) Treatment requirements were calculated based upon the rates being tested, the concentration of active ingredient or acid equivalent in the formulation, and a 12 milliliter (mL) application volume at a rate of 187 liters per hectare (L/ha).
as §3, §4, §5, §6, §7, §8

[4] = test system: LEFPA; assay: as above; format: in vivo, Leptochloa panicoides
Description: as §9, §2, §10, §3, §4, §5, §6, §7, §8

[5] = test system: CYPIR; format: in vivo, Cyperus iria; details: 480 g ai/ha alone
Description: as §9, §2, §10, §3, §4, §5, §6, §7, §8

[6] = test system: ECHCO; assay: Postemergence foliar-applied weed control, direct-seeded rice (greenhouse); format: in vivo, Echinochloa colonum; details: 480 g ai/ha alone
Description: as §1, §2, §3, §4, §5, §6, §7, §8

[7] = test system: SCPJU; assay: as above; format: in vivo, Schoenoplectus juncoides; details: 480 g ai/ha alone
Description: as §9, with “Supplemental lighting was provided with overhead metal halide 1000-Watt lamps as necessary. The plants were employed for testing when they reached the first through fourth true leaf stage.” left out
as §10
For treatments comprised of formulated compounds, measured amounts of compounds were placed individually in 25 mL glass vials and diluted in a volume of 1.25% volume per volume (v/v) Agri-Dex® crop oil concentrate to obtain 12× stock solutions. […]

Row | SMILES | Visual Weed Control (%) - 22 DAA DIGSA Obs [1] [%] | pest or weed control at 140 g/ha [2] [%] | pest or weed control at 280 g/ha [2] [%] | pest or weed control at 560 g/ha [2] [%] | Visual Weed Control (%) - 22 DAA LEFFA Obs ([3]; 140 g ai/ha alone) [%] | Visual Weed Control (%) - 22 DAA LEFFA Obs ([3]; 280 g ai/ha alone) [%] | Visual Weed Control (%) - 22 DAA LEFFA Obs ([3]; 560 g ai/ha alone) [%] | Visual Weed Control (%) - 22 DAA LEFPA Obs ([4]; 140 g ai/ha alone) [%] | Visual Weed Control (%) - 22 DAA LEFPA Obs ([4]; 280 g ai/ha alone) [%] | Visual Weed Control (%) - 22 DAA LEFPA Obs ([4]; 560 g ai/ha alone) [%] | Visual Weed Control (%) - 22 DAA CYPIR Obs [5] [%] | Visual Weed Control (%) - 22 DAA ECHCO Obs [6] [%] | pest or weed control at 480 g/ha [2] [%] | Visual Weed Control (%) - 22 DAA SCPJU Obs [7] [%]
1 | CCCCOCCOCCOCc1cc2c(cc1CCC)OCO2 [Piperonyl Butoxide, 5-[[2-(2-butoxyethoxy)ethoxy]methyl]-6-propyl-1,3-benzodioxole] | 0 | 0 | 0 | 0 | 0 | 5 | 0 | 0 | 5 | 0 |  |  |  | 
2 | CNC(=O)CSP(=S)(OC)OC [Dimethoate, O,O-dimethyl S-methylcarbamoylmethyl phosphorodithioate] |  |  |  |  |  |  |  |  |  |  | 0 | 10 | 0 | 0

Reference: patent publication US9237747B2, “Herbicidal compositions comprising 4-amino-3-chloro-5-fluoro-6-(4-chloro-2-fluoro-3-methoxyphenyl) pyridine-2-carboxylic acid or a derivative thereof and insecticides” (priority 2013, dated 2016)
